Results as given in US11014915B2, “Selective estrogen receptor degrader” (SUN PHARMA ADVANCED RESEARCH COMPANY LIMITED, priority 2019, dated 2021).
Positions count from the first letter of the chain named.

Assays:
[1] = target: T1, ER-α in MCF-7 cells harboring mutant ER (WT/D538G) (Homo sapiens, UniProt P03372, D538G); assay: ER-α degradation (SERD) assay, MCF-7 D538G; type: cell-based; conditions: for DC50: MCF-7 D538G, 4 days, read-out: ER-α degradation assay D538G IC50
T1 construct: MCF-7 cells harboring mutant ER (WT/D538G and WT/Y537S); endogenous in cells; host or cells: MCF-7 D538G (WT/D538G)
T1 sequence (P03372 1-595 D538G): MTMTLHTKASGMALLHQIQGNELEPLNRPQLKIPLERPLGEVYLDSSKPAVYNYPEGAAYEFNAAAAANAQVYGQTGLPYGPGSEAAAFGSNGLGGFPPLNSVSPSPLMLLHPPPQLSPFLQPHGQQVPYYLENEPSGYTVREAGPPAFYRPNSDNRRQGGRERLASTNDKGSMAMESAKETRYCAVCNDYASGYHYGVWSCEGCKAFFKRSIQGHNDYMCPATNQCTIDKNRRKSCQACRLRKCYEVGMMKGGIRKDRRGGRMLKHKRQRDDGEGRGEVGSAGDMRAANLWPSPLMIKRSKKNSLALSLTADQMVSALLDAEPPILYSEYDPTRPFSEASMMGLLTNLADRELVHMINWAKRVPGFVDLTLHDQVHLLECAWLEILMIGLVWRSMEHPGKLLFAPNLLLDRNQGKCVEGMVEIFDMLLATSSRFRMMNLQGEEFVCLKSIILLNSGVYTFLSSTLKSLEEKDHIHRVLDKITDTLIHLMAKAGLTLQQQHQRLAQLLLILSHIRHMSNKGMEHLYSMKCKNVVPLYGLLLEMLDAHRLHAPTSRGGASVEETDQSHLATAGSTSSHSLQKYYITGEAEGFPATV
Experimental: (§1) Selective Estrogen Receptor Degradation (SERD) Assay:
(§2) The SERD activity for the test compounds was evaluated in MCF-7 cells harboring ER wild type, and MCF-7 cells harboring mutant ER (WT/D538G and WT/Y537S). Briefly, cells were plated in phenol red free RPMI1640 medium supplemented with 5% charcoal stripped fetal bovine serum. The seeding density was 40000 cells/well for MCF-7 WT and MCF-7 D538G and 50000 cells/well MCF-7 Y537S in a 48-well plate. Following overnight incubation, the cells were treated with varying concentrations of test compounds (final concentration: 1000 nM to 0.01 nM, 0.1% DMSO) for 4 days. The cells were lysed using PBS supplemented with 1 mM EDTA, 0.5% Triton X-100, 5 mM NaF, 6 M urea, and 1× Protease inhibitor cocktail. The lysate was analyzed for ER alpha protein using western blot. For the western blot, the cell lysate (12.5-40 μg total protein) was resolved on a 10% SDS PAGE and transferred onto a PVDF membrane. The blots were blocked using 5% skim milk powder in 0.1% PBS-T for 1 hour at room temperature, followed by co-incubation with rabbit anti-human β-actin antibody and rabbit anti-human ERα antibody for 2 hours at room temperature. The blots were subsequently probed with anti-rabbit IgG-HRP conjugate as secondary antibody for 1 hour at room temperature. The blots were developed by using West Pico Super Signal Chemiluminescence substrate and the bands were processed for densitometry analysis using Image Lab software (BioRad version 6.0.0). ERα band intensity was normalized to that housekeeping protein for respective samples. The % ER remaining was calculated by normalizing against the vehicle control (as 100%).

[2] = tested on: MCF-7 cells harboring mutant ER (WT/Y537S); assay: MCF-7 cell growth inhibition assay, Y537S; type: cell-based; conditions: Homo sapiens, MCF7, 168 h; MCF-7 Y537S, seven-day incubation
Experimental: (§3) MCF-7 Cell Growth Inhibition Assay:
(§4) The anti-proliferative activity of the test compounds were evaluated in a growth inhibition assay. Briefly, MCF-7 cells harboring ER wild type (Wt), and MCF-7 cells harboring mutant ER (WT/D538G and WT/Y537S) were seeded at a density of 1000 cells/well in 96-well plate in phenol red free RPMI1640 medium supplemented with 10% charcoal stripped fetal bovine serum. The cells were incubated overnight at 37° C. and 5% CO2 followed by the addition of varying concentrations of the test compounds in DMSO. Final concentration of DMSO in the well was 0.5%. Following a seven-day incubation of cells with the test compounds, cell viability was assessed using a Prestoblue™ reagent. The percent inhibition of cell proliferation was calculated by normalizing the cell viability using a vehicle control as 0% inhibition of proliferation.

[3] = tested on: MCF-7 cells harboring mutant ER (WT/D538G); assay: MCF-7 cell growth inhibition assay, D538G; type: cell-based; conditions: Homo sapiens, MCF7, 168 h; MCF-7 D538G, seven-day incubation
Experimental: as §3, §4

[4] = target: T2, ER-α in MCF-7 cells harboring mutant ER (WT/Y537S) (Homo sapiens, UniProt P03372, Y537S); assay: ER-α degradation (SERD) assay, MCF-7 Y537S; type: cell-based; conditions: for DC50: MCF-7 Y537S, 4 days, read-out: ER-α degradation assay Y537S IC50
T2 construct: MCF-7 cells harboring mutant ER (WT/D538G and WT/Y537S); endogenous in cells; host or cells: MCF-7 Y537S (WT/Y537S)
T2 sequence (P03372 1-595 Y537S): T1 sequence (P03372 1-595 D538G) with Y537S, G538D
Experimental: as §1, §2

[5] = tested on: MCF-7 cells harboring ER wild type (Wt); assay: MCF-7 cell growth inhibition assay, wild type; type: cell-based, human; conditions: for IC50: Homo sapiens, MCF7, 168 h, MCF-7 Wt, seven-day incubation
Experimental: as §3, §4

DC50 [1] [nM] | IC50 [2] [nM] | IC50 [3] [nM] | DC50 [4] [nM] | IC50 [5] [nM] | ER-α degradation in mutated cell line (in words) ([1]; D538G) | ER-α degradation in mutated cell line (in words) ([4]; Y537S) | SMILES | Potency of Formula Ia relative to Formula Ib in MCF-7 growth inhibition assay ([5]; wild type)
12.7 | 6 | 2.2 | 19.6 | 0.3 |  |  | CC1=C(c2cc(F)cc(F)c2)[C@H](c2ccc(/C=C/CN3CC(CF)C3)cc2)Oc2cc(O)ccc21 [Formula Ia, (2S)-3-(3,5-difluorophenyl)-2-[4-[(E)-3-[3-(fluoromethyl)azetidin-1-yl]prop-1-enyl]phenyl]-4-methyl-2H-chromen-7-ol] | about 233 times
> 1000 | 1000 | 345 | > 1000 | 69.9 | no ER-α degradation | no ER-α degradation | CC1=C(c2cc(F)cc(F)c2)[C@@H](c2ccc(/C=C/CN3CC(CF)C3)cc2)Oc2cc(O)ccc21 [Formula Ib, (2R)-3-(3,5-difluorophenyl)-2-[4-[(E)-3-[3-(fluoromethyl)azetidin-1-yl]prop-1-enyl]phenyl]-4-methyl-2H-chromen-7-ol] | 
